Results as given in US7652029B2, “Therapeutic compound and treatments” (priority 2004, dated 2010).

Experiments:
Experiment in all cases: NCI multiple cell line test (SRB)
Assay type in all cases: cell-based, human
OVCAR-3 = OVCAR-3 (Ovarian Cancer), 48 h
HOP-92 = HOP-92 (Non-Small Cell Lung Cancer), 48 h
CAKI-1 = CAKI-1 (Renal Cancer), 48 h
IGROV1 = IGROV1 (Ovarian Cancer), 48 h
[1] = Homo sapiens, read-out: −log10GI50 (converted)

COC(=O)C1=C(C(=O)OC)SC2(S1)C(C(=O)OC)=C(C(=O)OC)SC1=C2c2cccc(OC)c2N(C(=O)CN2C(=O)CCC2=O)C1(C)C [MT477]
IC50 (OVCAR-3; [1]): 0.813 µM
−log10LC50 (OVCAR-3): 5.39 molar
−log10TGI (OVCAR-3): 5.74 molar
−log10LC50 (HOP-92): 4.6 molar
−log10TGI (HOP-92): 5.21 molar
IC50 (HOP-92; [1]): 1.66 µM
−log10LC50 (CAKI-1): 4.48 molar
−log10TGI (CAKI-1): 4.83 molar
IC50 (CAKI-1; [1]): 6.61 µM
IC50 (IGROV1; Homo sapiens, IGROV-1, read-out: −log10GI50 (converted)): 17.8 µM
−log10LC50 (IGROV1): * (effect not reached at maximum dose of 0.05 millimolar)
−log10TGI (IGROV1): 4.3 molar
